PubChem BioAssay AID1259408 (Genetic Toxicology Data Bank (GENE-TOX), 2018)
Active and inactive are the calls of the source. No rule for the calls is given here.

System: GENE-TOX genotoxicity assays, various organisms and cells
Assay: GENE-TOX mutagenicity studies
[1] = Species/Cell Type: Escherichia coli polA (W3119 vs P3478), Assay Type: Rec-assay, DNA effects (bacterial DNA repair), Assay Code: RE1T, Evaluation Type: Evaluation A (Pre-1980)
[2] = Species/Cell Type: Salmonella typhimurium (one or more of the five standard strains: TA98, TA100, TA1535, TA1537, and TA1538), Assay Type: Histidine reverse gene mutation, Ames assay, Assay Code: SALT, Evaluation Type: Evaluation A (Pre-1980)
[3] = Species/Cell Type: Drosophila melanogaster, Assay Type: Sex-linked recessive lethal gene mutation, Assay Code: SRLT, Evaluation Type: Evaluation A (Pre-1980)
[4] = Species/Cell Type: Salmonella typhimurium (one or more of the five standard strains: TA98, TA100, TA1535, TA1537, and TA1538), Assay Type: Histidine reverse gene mutation, Ames assay, Assay Code: SAL+, Evaluation Type: Evaluation A (Pre-1980)

Compound: CN(Cc1cnc2nc(N)nc(N)c2n1)c1ccc(C(=O)N[C@@H](CCC(=O)O)C(=O)O)cc1
- mutagenic call (Species/Cell Type: Arabidopsis species, Assay Type: Gene mutation, Assay Code: ARM-, Evaluation Type: Evaluation A (Pre-1980)): inactive; negative
- mutagenic call (Species/Cell Type: Escherichia coli WP2, Assay Type: Tryptophan reverse gene mutation, Assay Code: WP2+, Evaluation Type: Evaluation A (Pre-1980)): active; positive
- mutagenic call [1]: no conclusion
- mutagenic call (Species/Cell Type: Human diploid fibroblasts, Assay Type: Unscheduled DNA synthesis (UDS) in vitro, DNA effects, Assay Code: UDH-, Evaluation Type: Evaluation A (Pre-1980)): inactive; negative
- mutagenic call (Species/Cell Type: Human lymphocytes, Assay Type: Sister-chromatid exchange (SCE) in vivo, Assay Code: SCY+, Evaluation Type: Evaluation B (Post-1980)): active; positive
- mutagenic call (Species/Cell Type: Human, Sex: Male, Assay Type: Sperm morphology, Assay Code: SPH+, Evaluation Type: Evaluation A (Pre-1980)): active; positive
- mutagenic call (Species/Cell Type: Mammalian oocytes or early embryo, Assay Type: Chromosome aberrations in vivo, Assay Code: CYO+D, Dose Response: With dose response, Evaluation Type: Evaluation A (Pre-1980)): active; positive
- mutagenic call (Species/Cell Type: Mammalian polychromatic erythrocytes, Assay Type: Micronucleus test, chromosome aberrations, Assay Code: MNT+, Evaluation Type: Evaluation A (Pre-1980)): active; positive
- mutagenic call (Species/Cell Type: Mouse (C3H/10T1/2) cells, Assay Type: Cell transformation, Assay Code: CTH+D, Dose Response: With dose response, Evaluation Type: Evaluation A (Pre-1980)): active; positive
- mutagenic call (Species/Cell Type: Mouse lymphoma (L5178Y) cells, Assay Type: Forward gene mutation at the thymidine kinase (TK) locus, chromosome aberrations, Assay Code: L51+, Evaluation Type: Evaluation A (Pre-1980)): active; positive
- mutagenic call (Species/Cell Type: Neurospora crassa, Assay Type: Aneuploidy, chromosome aberrations, Assay Code: NEN+, Evaluation Type: Evaluation A (Pre-1980)): active; positive
- mutagenic call (Species/Cell Type: Nonhuman, Assay Type: Chromosome aberrations in vitro, Assay Code: CY&+D, Dose Response: With dose response, Evaluation Type: Evaluation A (Pre-1980)): active; positive
- call (Species/Cell Type: Nonhuman, Assay Type: In vivo carcinogenicity studies, Assay Code: CCG-L, Evaluation Type: Evaluation A (Pre-1980)): inactive; negative
- mutagenic call (Species/Cell Type: Nonhuman, Assay Type: Sister-chromatid exchange (SCE) in vitro, Assay Code: SC2+, Evaluation Type: Evaluation A (Pre-1980)): active; positive
- mutagenic call (Species/Cell Type: Rodents, Sex: Male, Assay Type: Dominant lethal test, Assay Code: DLTT, Evaluation Type: Evaluation A (Pre-1980)): no conclusion
- mutagenic call (Species/Cell Type: Saccharomyces cerevisiae, Assay Type: Mitotic recombination or gene conversion, Assay Code: YEH+, Evaluation Type: Evaluation A (Pre-1980)): active; positive
- mutagenic call [2]: no conclusion
- mutagenic call (Species/Cell Type: Serratia marcesens, Assay Type: Reverse gene mutation, host-mediated assay, Assay Code: HMC+, Evaluation Type: Evaluation A (Pre-1980)): active; positive
- mutagenic call (Species/Cell Type: Syrian hamster embryo (SHE) cells, Assay Type: Cell transformation, clonal assay, Assay Code: CTC-, Evaluation Type: Evaluation A (Pre-1980)): inactive; negative

Compound: C=CN(CC)N=O
- mutagenic call (Species/Cell Type: Arabidopsis species, Assay Type: Gene mutation, Assay Code: ARM+D, Dose Response: With dose response, Evaluation Type: Evaluation A (Pre-1980)): active; positive

Compound: O=c1ccc2ccccc2o1
- mutagenic call (Species/Cell Type: Allium cepa, Assay Type: Chromosome aberrations, Assay Code: ALC+D, Dose Response: With dose response, Evaluation Type: Evaluation A (Pre-1980)): active; positive

Compound: CC(=O)OCCN(CCOC(C)=O)N=O
- mutagenic call (Species/Cell Type: Mammalian polychromatic erythrocytes, Assay Type: Micronucleus test, chromosome aberrations, Assay Code: MNTT, Evaluation Type: Evaluation B (Post-1980)): no conclusion

Compound: Cc1c2ccccc2cc2c1ccc1cccc(C)c12
- mutagenic call [3]: no conclusion

Compound: O=Cc1ccccc1[N+](=O)[O-]
- mutagenic call [4]: active; positive

Compound: CC(=O)Nc1nc(-c2cc([N+](=O)[O-])cs2)cs1
- mutagenic call [4]: active; positive

Compound: COC(=O)C1=CCCN(C)C1
- mutagenic call (Species/Cell Type: Mammalian polychromatic erythrocytes, Assay Type: Micronucleus test, chromosome aberrations, Assay Code: MNT+U, Dose Response: Unconfirmed positive response, Evaluation Type: Evaluation B (Post-1980)): active; positive
- mutagenic call (Species/Cell Type: Nonhuman, Assay Type: Sister-chromatid exchange (SCE) in vivo, Assay Code: SC3+, Evaluation Type: Evaluation B (Post-1980)): active; positive

Compound: Nc1ccc2c(S(=O)(=O)O)cccc2c1S(=O)(=O)O
- mutagenic call [2]: no conclusion

Compound: Nc1ncnc2c1ncn2[C@@H]1O[C@H](CO)[C@@H](O)[C@@H]1O
- mutagenic call (Species/Cell Type: Vicia faba, Assay Type: Chromosome aberrations, Assay Code: VIC+D, Dose Response: With dose response, Evaluation Type: Evaluation A (Pre-1980)): active; positive

Compound: c1ncncn1
- mutagenic call [3]: no conclusion

Compound: Cc1ccc(N)cc1
- mutagenic call (Species/Cell Type: Escherichia coli polA (W3110 vs P3478), Assay Type: Rec-assay, DNA effects (bacterial DNA repair), Assay Code: RE2-, Evaluation Type: Evaluation A (Pre-1980)): inactive; negative
- mutagenic call (Species/Cell Type: Escherichia coli polA (W3119 vs P3478), Assay Type: Rec-assay, DNA effects (bacterial DNA repair), Assay Code: RE1-, Evaluation Type: Evaluation A (Pre-1980)): inactive; negative
- mutagenic call (Species/Cell Type: Saccharomyces cerevisiae, Assay Type: Mitotic recombination or gene conversion, Assay Code: YEH+*, Activation: With metabolic activation, Evaluation Type: Evaluation A (Pre-1980)): active; positive
- mutagenic call (Species/Cell Type: Saccharomyces cerevisiae, Assay Type: Mitotic recombination or gene conversion, Assay Code: YEH-, Evaluation Type: Evaluation A (Pre-1980)): inactive; negative

Compound: [Cl][Pb][Cl]
- mutagenic call (Species/Cell Type: Bacillus subtilis (H17 vs M45), Assay Type: Rec-assay, spot test, DNA effects (bacterial DNA repair), Assay Code: REW-, Evaluation Type: Evaluation A (Pre-1980)): inactive; negative

Compound: O=C(OOC(=O)c1ccccc1)c1ccccc1
- mutagenic call [1]: no conclusion

Compound: Nc1ccc(S)cc1
- mutagenic call (Species/Cell Type: Mouse, Sex: Male, Assay Type: Sperm morphology, Assay Code: SPI-, Evaluation Type: Evaluation A (Pre-1980)): inactive; negative

Compound: FC(F)F
- mutagenic call [3]: no conclusion

Compound: O=C(O)c1ccccc1C(=O)Nc1cccc2ccccc12
- mutagenic call (Species/Cell Type: Hordeum vulgare (barley), Assay Type: Chromosome aberrations, Assay Code: HOC+, Evaluation Type: Evaluation A (Pre-1980)): active; positive
- mutagenic call (Species/Cell Type: Vicia faba, Assay Type: Chromosome aberrations, Assay Code: VIC+, Evaluation Type: Evaluation A (Pre-1980)): active; positive

Compound: O=NN1CCCNC1=O
- mutagenic call [4]: active; positive
